According to publication PMC8416862 (Clinical Pharmacokinetics, 2021):
Each block holds one compound with its values, some of them ahead of it.

Assays:
CYP enzymes = conditions: in vitro studies; cited from earlier work
drug transporters = conditions: in vitro studies; cited from earlier work
[1] = cited from earlier work
[2] = Trial 2: plasma pharmacokinetics of single-dose furosemide and rosuvastatin; format: in vivo, healthy male and female subjects; conditions: single dose co-administered with oral semaglutide versus alone
[3] = co-administered with once-weekly subcutaneous semaglutide; cited from earlier work

SMILES: CC[C@H](C)[C@H](NC(=O)[C@H](Cc1ccccc1)NC(=O)[C@H](CCC(=O)O)NC(=O)[C@H](CCCCNC(=O)COCCOCCNC(=O)COCCOCCNC(=O)CC[C@H](NC(=O)CCCCCCCCCCCCCCCCC(=O)O)C(=O)O)NC(=O)[C@H](C)NC(=O)[C@H](C)NC(=O)[C@H](CCC(N)=O)NC(=O)CNC(=O)[C@H](CCC(=O)O)NC(=O)[C@H](CC(C)C)NC(=O)[C@H](Cc1ccc(O)cc1)NC(=O)[C@H](CO)NC(=O)[C@H](CO)NC(=O)[C@@H](NC(=O)[C@H](CC(=O)O)NC(=O)[C@H](CO)NC(=O)[C@@H](NC(=O)[C@H](Cc1ccccc1)NC(=O)[C@@H](NC(=O)CNC(=O)[C@H](CCC(=O)O)NC(=O)C(C)(C)NC(=O)[C@@H](N)Cc1cnc[nH]1)[C@@H](C)O)[C@@H](C)O)C(C)C)C(=O)N[C@@H](C)C(=O)N[C@@H](Cc1c[nH]c2ccccc12)C(=O)N[C@@H](CC(C)C)C(=O)N[C@H](C(=O)N[C@@H](CCCNC(=N)N)C(=O)NCC(=O)N[C@@H](CCCNC(=N)N)C(=O)NCC(=O)O)C(C)C [Semaglutide, semaglutide]
potential to inhibit or induce CYP enzymes (CYP enzymes): very low potential | potential to inhibit drug transporters (drug transporters): very low potential | elimination of intact semaglutide in urine ([1]; absorption, metabolism and excretion trial with subcutaneous semaglutide): 3%

increase in maximum concentration [2]: 10% | increase in total exposure [2]: 41%
SMILES: CC(C)c1nc(N(C)S(C)(=O)=O)nc(-c2ccc(F)cc2)c1/C=C/[C@@H](O)C[C@@H](O)CC(=O)O [Rosuvastatin, rosuvastatin]
bioavailability, orally administered ([1]; oral administration): approximately 20%

SMILES: C#C[C@]1(O)CC[C@H]2[C@@H]3CCC4=CC(=O)CC[C@@H]4[C@H]3CC[C@@]21CC [levonorgestrel]
increase in AUC [3]: 20%

decrease in the maximum concentration [2]: 34%
SMILES: NS(=O)(=O)c1cc(C(=O)O)c(NCc2ccco2)cc1Cl [Furosemide, furosemide]
